Patent US20050255537A1, “Method for monitoring treatment with a parathyroid hormone” (priority 1999, published 2005)

Key:
postmenopausal women = experiment: Pharmacokinetic/pharmacodynamic sigmoid Emax models (spine BMD, femoral neck BMD, PICP); format: in vivo, human
Description: (§1) In order to explore the relationship between concentration and the effect on spine BMD, a pharmacokinetic/pharmacodynamic model was developed. This relationship was best described by a sigmoid Emax model with AUC50 estimated at 170 pg·hr/mL.
A pharmacokinetic/pharmacodynamic model was also developed for femoral neck BMD. The relationship was best described by a sigmoid Emax model with AUC50 estimated at 283 pg·hr/mL. […] Thus, the final pharmacodynamic model which included treatment group rather than systemic exposure, predicted the increase in hip BMD in a patient of average age (˜69 years), body weight (˜66 kg), and baseline NTX concentration (˜48 mmBCE/L) to be approximately 2.8% and 5.2% after 21 months of 20 μg/day and 40 μg/day therapy, respectively.
A pharmacokinetic/pharmacodynamic model was developed for the PICP response. […] Thus, LY333334 exposure was a less significant predictor of elevation in PICP concentrations than administered dose.

[1] = system: serum PICP, serum BSAP, urinary NTX, urinary free deoxypyridinoline; experiment: Example 5 study GHAJ: biochemical markers of bone formation and resorption in men; format: in vivo, human; conditions: for serum PICP peak concentration above baseline: Month 1
Description: Four hundred thirty seven men with primary osteoporosis were enrolled in the study. Approximately one-third of die patients were randomly assigned to LY333334 40 μg/day plus calcium and vitamin D, one-third of the patients were randomly assigned to LY333334 20 μg/day plus calcium and vitamin D, and one-third of the patients were randomly assigned to placebo plus calcium and vitamin D. • Number of Subjects: • PTH: Male 437, Female 0, Total 437; • LY333334 20 μg: Male: Total 151. • LY333334 40 μg: Male: Total 139. • Placebo: Male: Total 147. • Diagnosis and Inclusion Criteria: The study patients were men with primary osteoporosis, aged 30 to 85 years, inclusive. L-2 to L-4 vertebrae must have been intact without artifacts, crush fracture or other abnormalities which would have interfered with the analysis of the posterior-anterior lumbar spine bone mineral density (BMD) measurement which must have been at least 2.0 SD below that of young, healthy men. […] Patient Demographic and Other Baseline Characteristics

[2] = system: postmenopausal osteoporotic women; experiment: GHAC efficacy trial (intent to treat BMD, fractures); format: in vivo, human; conditions: 20 μg/day, 21 months
Description: • Number of Subjects: • rhPTH(1-34): 1093 enrolled, 848 finished. • Placebo: 544 enrolled, 447 finished. • Diagnosis and Inclusion Criteria: Women ages 30 to 85 years, postmenopausal for a minimum of 5 years, with a minimum of one moderate or two mild atraumatic vertebral fractures. • Dosage and Administration: • Test Product (blinded) • rhPTH(1-34): 20 μg/day, given subcutaneously • rhPTH(1-34): 40 μg/day, given subcutaneously • Reference Therapy (blinded) • Placebo study material for injection • Duration of Treatment: • rhPTH(1-34): 17-23 months (excluding 6-month run-in phase) • Placebo: 17-23 months (excluding 6-month run-in phase) • Criteria for Evaluation: Spine x-ray; serum biological markers (calcium, bone-specific alkaline phosphatase, procollagen I carboxy-terminal propeptide); urine markers (calcium, N-telopeptide, free deoxypyridinoline); 1,25-dihydroxyvitamin D; bone mineral density: spine, hip, wrist, and total body: height; population pharmacokinetics; bone biopsy (selected study sites).
Population pharmacodynamic analyses were undertaken to evaluate the time course of the relationships between efficacy measures and LY333334 dose or LY333334 concentrations. […] As a part of this assessment, a population placebo-response model describing the change in BMD in patients randomly assigned to placebo (supplemented with calcium and vitamin D) was first developed. […]

[3] = system: BSAP and PICP serum levels, NTX urine levels; experiment: Example 2 clinical trial of rhPTH(1-34) plus hormone replacement therapy vs HRT: bone markers; format: in vivo, human; conditions: 40 μg/day PTH plus HRT
Description: • Number of Subjects: • rhPTH(1-34) plus hormone replacement therapy (HRT) (estrogen±progesterone): 122 enrolled, 91 finished. • Control, hormone replacement therapy (estrogen±progesterone) without PTH: 125 enrolled, 105 finished. • Diagnosis and Inclusion Criteria: Women aged 62±8 years, postmenopausal for 15±8 years, selected for a baseline spine bone mineral density of 0.9±0.15 and a T value of −1.8. • Dosage and Administration: • Test Product (blinded) • rhPTH(1-34): 40 μg/day, given subcutaneously plus hormone replacement therapy (estrogen±progesterone). Subjects continued their prestudy hormone replacement therapy, maintained an HRT regimen consistent with local medical practices, took continuous/combined estrogen and progestin therapy using oral Premarin (0.625 mg/day) and oral Provera (2.5 mg/day) (intact uterus), or took estrogen therapy using oral Premarin (0.625 mg/day) (without intact uterus). • Reference (Control) Therapy (Blinded) • Hormone replacement therapy (estrogen±progesterone). Subjects continued their prestudy hormone replacement therapy, maintained an HRT regimen consistent with local medical practices, took continuous/combined estrogen and progestin therapy using oral Premarin (0.625 mg/day) and oral Provera (2.5 mg/day) (intact uterus), or took estrogen therapy using oral Premarin (0.625 mg/day) (without intact uterus). • Duration of Treatment: • rhPTH(1-34): up to 18 months • Control: up to 18 months • Criteria for Evaluation: Spine x-ray, serum biological makers (calcium, bone-specific alkaline phosphatase procollagen I carboxy-terminal propeptide); urine markers (calcium, N-telopeptide, fee deoxypyridinoline); 1,25-dihydroxyvitamin D; bone mineral density: spine, hip, wrist, and total body.
Measures of BSAP, PICP, and NTX levels were determined for each patient through the course of therapy generally according to methods described above in Example 1.

[4] = Post-hoc estimates of AUC from the pharmacokinetic model (systemic exposure); conditions: human, in vivo, subcutaneous
Description: as §1

[5] = about 5-6 weeks following termination (18 months)

## CC[C@H](C)[C@H](NC(=O)[C@H](CCC(=O)O)NC(=O)[C@H](CO)NC(=O)[C@@H](NC(=O)[C@@H](N)CO)C(C)C)C(=O)N[C@@H](CCC(N)=O)C(=O)N[C@@H](CC(C)C)C(=O)N[C@@H](CCSC)C(=O)N[C@@H](Cc1cnc[nH]1)C(=O)N[C@@H](CC(N)=O)C(=O)N[C@@H](CC(C)C)C(=O)NCC(=O)N[C@@H](CCCCN)C(=O)N[C@@H](Cc1cnc[nH]1)C(=O)N[C@@H](CC(C)C)C(=O)N[C@@H](CC(N)=O)C(=O)N[C@@H](CO)C(=O)N[C@@H](CCSC)C(=O)N[C@@H](CCC(=O)O)C(=O)N[C@@H](CCCN=C(N)N)C(=O)N[C@H](C(=O)N[C@@H](CCC(=O)O)C(=O)N[C@@H](Cc1c[nH]c2ccccc12)C(=O)N[C@@H](CC(C)C)C(=O)N[C@@H](CCCN=C(N)N)C(=O)N[C@@H](CCCCN)C(=O)N[C@@H](CCCCN)C(=O)N[C@@H](CC(C)C)C(=O)N[C@@H](CCC(N)=O)C(=O)N[C@@H](CC(=O)O)C(=O)N[C@H](C(=O)N[C@@H](Cc1cnc[nH]1)C(=O)N[C@@H](CC(N)=O)C(=O)N[C@@H](Cc1ccccc1)C(=O)O)C(C)C)C(C)C [LY333334]
Postmenopausal women; 20 μg dose
  increase in PICP concentration at 1 month as % of the maximum effect: 70%
  increase in femoral neck BMD as % of the maximum effect: 56%
  increase in spine BMD as % of the maximum effect: 82%
Postmenopausal women; 40 μg dose
  increase in PICP concentration at 1 month as % of the maximum effect: 85%
  increase in femoral neck BMD as % of the maximum effect: 67%
  increase in spine BMD as % of the maximum effect: 92%
Postmenopausal women; PICP
  AUC50, sigmoid Emax model for PICP response: 239 pg·h/mL
Postmenopausal women; femoral neck BMD
  AUC50, sigmoid Emax model for femoral neck BMD: 283 pg·h/mL
Postmenopausal women; spine BMD
  AUC50, sigmoid Emax model for spine BMD: 170 pg·h/mL
[1]; 20-μg and 40-μg doses
  urinary N-telopeptide and urinary free deoxypyridinoline: Slightly delayed but significant increases
[1]; 20-μg group
  serum PICP peak concentration above baseline: 33.7%
[1]; 20-μg group, Month 12
  increase in serum BSAP concentration from baseline: 28.8%
  serum PICP compared with baseline: decreased compared with baseline
  urinary NTX percent change from baseline, peak: approximately 57%
[1]; 40-μg group
  serum PICP peak concentration above baseline: 78.0%
[1]; 40-μg group, Month 6
  urinary NTX percent change from baseline, peak: approximately 155%
[1]; 40-μg group, Month 12
  increase in serum BSAP concentration from baseline: 59.3%
  serum PICP compared with baseline: slightly decreased compared with baseline
  urinary NTX over baseline: approximately 118%
[1]; closeout visit
  bone marker levels after discontinuation: only serum PICP levels had returned to baseline by the closeout visit
[2]
  actual increase in femoral neck BMD from intent to treat analyses: 2.8%
  actual increase in spine BMD from intent to treat analyses: 9.7%
[3]; FIG. 5
  percent change in PICP serum levels during treatment: reached a peak within about one or two months
[3]; FIG. 6
  percent change in NTX urine levels during treatment: increased steadily until about 6 months after treatment initiation and remained at about the same high level at 12 months
[3]; [5]
  BSAP level after termination of PTH treatment: maintained an elevated level
  PICP levels after termination of PTH treatment: PICP levels were the same as HRT controls
  percent change in NTX levels after termination of PTH treatment: had declined and approached levels similar to those observed in the control group
[4]; 20 ug
  AUC: 0.365 ng·h/mL
[4]; 40 ug
  AUC: 0.576 ng·h/mL
